pIC50: −log10 of the molar value. Where two headings read alike, the source gives them in different places.
Assays:
[1] = target: T1, PDGF-Ra (Homo sapiens, UniProt P16234); experiment: Inhibitory activity against PDGF-Ra phosphorylation by PDGF-AA stimulation using G292; assay type: cell-based; conditions: for pIC50: > means inhibition at indicated concentration not more than 50%, < and << not less than 50%, read-out: PDGF (E) IC50; for inhibition at 0.1 µM: G292, read-out: PDGF (E) inhibition (%) at 100 nM; for inhibition at 0.1 µM / PDGF (E) inhibition (%) at 100 nM: at 100 nM
T1 construct: host or cells: G-292 human osteosarcoma cells
T1 sequence (P16234 24-1089): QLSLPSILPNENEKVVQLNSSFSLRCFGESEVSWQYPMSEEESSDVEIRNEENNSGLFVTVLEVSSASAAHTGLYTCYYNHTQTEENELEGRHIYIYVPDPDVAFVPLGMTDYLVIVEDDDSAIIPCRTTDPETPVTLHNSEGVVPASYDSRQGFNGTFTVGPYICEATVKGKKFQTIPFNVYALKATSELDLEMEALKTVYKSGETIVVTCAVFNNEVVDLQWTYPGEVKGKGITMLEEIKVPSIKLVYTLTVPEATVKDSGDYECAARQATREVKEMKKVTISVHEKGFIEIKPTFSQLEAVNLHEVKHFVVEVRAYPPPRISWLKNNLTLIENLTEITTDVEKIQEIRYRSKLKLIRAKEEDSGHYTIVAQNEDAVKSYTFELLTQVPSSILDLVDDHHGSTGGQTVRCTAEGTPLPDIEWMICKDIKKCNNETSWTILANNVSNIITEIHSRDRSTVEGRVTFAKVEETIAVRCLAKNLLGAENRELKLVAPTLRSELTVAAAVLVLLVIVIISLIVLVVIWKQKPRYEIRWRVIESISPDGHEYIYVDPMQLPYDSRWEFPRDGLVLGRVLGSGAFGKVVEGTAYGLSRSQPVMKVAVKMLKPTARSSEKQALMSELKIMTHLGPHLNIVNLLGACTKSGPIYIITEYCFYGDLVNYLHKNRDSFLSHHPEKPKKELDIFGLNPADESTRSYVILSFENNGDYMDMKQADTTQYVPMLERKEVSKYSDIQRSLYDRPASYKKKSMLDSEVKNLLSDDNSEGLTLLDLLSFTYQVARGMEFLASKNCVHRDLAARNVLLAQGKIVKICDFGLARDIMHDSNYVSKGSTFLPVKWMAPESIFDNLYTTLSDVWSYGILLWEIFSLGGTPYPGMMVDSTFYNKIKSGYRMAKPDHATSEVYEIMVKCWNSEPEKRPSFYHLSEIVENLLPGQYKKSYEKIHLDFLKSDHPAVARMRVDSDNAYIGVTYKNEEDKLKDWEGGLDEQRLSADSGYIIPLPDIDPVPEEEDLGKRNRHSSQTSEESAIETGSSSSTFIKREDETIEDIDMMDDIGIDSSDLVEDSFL
How it was run: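 In G-292 osteosarcoma cells kept overnight in 0.1% FBS, compound exposure (1 hr, 37 °C) preceded PDGF-AA stimulation at 50 ng/ml for 5 min; receptor phosphotyrosine was then detected by PY-20 capture ELISA.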

[2] = target: T2, c-kit (Homo sapiens, UniProt P10721); experiment: Inhibitory activity against c-kit autophosphorylation (MO7e cells, h-SCF); assay type: cell-based; conditions: for pIC50: MO7e cells, read-out: c-kit IC50; for inhibition at 1 µM: Mo7e, at 1000 nM
T2 construct: MO7e (human megakaryocytic leukemia cell line) which had been arrested for 20 hr; endogenous in cells; host or cells: MO7e human megakaryocytic leukemia cell line
T2 sequence (P10721 26-976): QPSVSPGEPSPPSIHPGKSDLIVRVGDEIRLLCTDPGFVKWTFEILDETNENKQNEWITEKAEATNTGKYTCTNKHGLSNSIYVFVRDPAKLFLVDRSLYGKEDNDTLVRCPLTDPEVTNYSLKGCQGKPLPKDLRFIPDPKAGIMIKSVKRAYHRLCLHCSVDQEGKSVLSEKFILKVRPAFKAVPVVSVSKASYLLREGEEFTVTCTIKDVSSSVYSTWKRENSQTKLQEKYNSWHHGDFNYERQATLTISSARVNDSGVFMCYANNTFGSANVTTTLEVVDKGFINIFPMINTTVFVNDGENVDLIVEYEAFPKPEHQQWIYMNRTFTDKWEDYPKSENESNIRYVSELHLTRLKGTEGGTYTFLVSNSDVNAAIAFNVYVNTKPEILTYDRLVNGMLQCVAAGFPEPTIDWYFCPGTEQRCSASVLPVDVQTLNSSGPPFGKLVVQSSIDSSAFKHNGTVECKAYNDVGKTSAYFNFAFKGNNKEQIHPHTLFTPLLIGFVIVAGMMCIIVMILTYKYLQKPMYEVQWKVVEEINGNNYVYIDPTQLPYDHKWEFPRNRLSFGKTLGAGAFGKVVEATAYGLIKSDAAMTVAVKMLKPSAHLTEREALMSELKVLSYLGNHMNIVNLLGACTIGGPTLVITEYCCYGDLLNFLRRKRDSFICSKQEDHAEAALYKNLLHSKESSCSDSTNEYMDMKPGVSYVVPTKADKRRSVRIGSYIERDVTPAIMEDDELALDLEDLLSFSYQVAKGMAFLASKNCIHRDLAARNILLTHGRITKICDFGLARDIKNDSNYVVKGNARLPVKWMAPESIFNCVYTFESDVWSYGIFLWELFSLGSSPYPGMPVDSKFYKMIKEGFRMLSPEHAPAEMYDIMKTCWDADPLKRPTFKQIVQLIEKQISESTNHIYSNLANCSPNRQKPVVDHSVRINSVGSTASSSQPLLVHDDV
How it was run: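 In this cellular autophosphorylation assay, compound-treated MO7e cells (1 hr) were challenged with human stem cell factor at 50 ng/ml for 5 min; detection relied on PY-20 capture and anti-c-kit/HRP immunodetection at 450 nm.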

[3] = figure within parentheses in >100( )
[4] = figure within parentheses in −( ) or >1000( )

Compound | pIC50 [1] | pIC50 ([2]; 50 ng/ml h-SCF) | also measured
COc1cc2ncnc(Oc3ccc(NC(=O)OC4CCOCC4)cc3)c2cc1OC [Example 473, Tetrahydro-2H-4-pyranyl N-{4-[(6,7-dimethoxy-4-quinazolinyl)oxy]phenyl}carbamate] | < 7.00 | 6.59 | inhibition at 0.1 µM [1, 3]: 30%
COc1cc2nccc(Oc3cc(C)c(NC(=O)OCCSc4cc(C)ccc4C)cc3C)c2cc1OC [Example 167, 2-[(2,5-Dimethylphenyl)sulfanyl]ethyl N-{4-[(6,7-Dimethoxy-4-quinolyl)oxy]-2,5-dimethylphenyl}carbamate] |  |  | pIC50 ([1]; Pharmacological Test Example 1): 7.35; pIC50 ([2]; h-SCF 50 ng/ml): 6.43
CCN(CC)CCOC(=O)Nc1ccc(Oc2ncnc3cc(OC)c(OC)cc23)cc1 [Example 436, 2-(Diethylamino)ethyl N-{4-[(6,7-dimethoxy-4-quinazolinyl)oxy]phenyl}carbamate] | < 7.00 | 6.06 | inhibition at 0.1 µM [1, 3]: 46%
COc1cc2nccc(Oc3ccc(NC(=O)OC4CCCCCC4)cc3)c2cc1OC [Example 286, Cycloheptyl N-{4-[(6,7-dimethoxy-4-quinolyl)oxy]phenyl}carbamate] |  |  | pIC50 ([1]; Pharmacological Test Example 1): > 8.00; pIC50 ([2]; h-SCF 50 ng/ml): 7.27
COc1cc2nccc(Oc3ccc(NC(=S)NCCCN4CCN(C)CC4)c(C)c3C)c2cc1OC [Example 557, N-{4-[(6,7-Dimethoxy-4-quinolyl)oxy]-2,3-dimethylphenyl}-N′-[3-(4-methylpiperazinyl)propyl]thiourea] | < 7.00 | 6.20 | PDGF (E) inhibition (%) at 100 nM [1, 3]: 33%
C#CCC(CC)OC(=O)Nc1ccc(Oc2ncnc3cc(OC)c(OC)cc23)cc1[N+](=O)[O-] (stereo not drawn) [Example 510, 1-Ethyl-3-butynyl N-{4-[(6,7-dimethoxy-4-quinazolinyl)oxy]-2-nitrophenyl}carbamate] | < 7.00 |  | inhibition at 0.1 µM [1, 3]: 3%; inhibition at 1 µM [2, 4]: 17%
COc1cc2nccc(Oc3cc(C)c(NC(=O)NCCN4CCCC4)cc3C)c2cc1OC [Example 619, N-{4-[(6,7-Dimethoxy-4-quinolyl)oxy]-2,5-dimethylphenyl}-N′-(2-tetrahydro-1H-1-pyrrolylethyl)urea] | < 7.00 |  | inhibition at 0.1 µM [1, 3]: 49%; inhibition at 1 µM [2, 4]: 44%
COc1cc2nccc(Oc3cc(C)c(NC(=O)Oc4c(OC)cccc4OC)cc3C)c2cc1OC [Example 281, 2,6-Dimethoxyphenyl N-{4-[(6,7-dimethoxy-4-quinolyl)oxy]-2,5-dimethylphenyl}carbamate] |  |  | inhibition at 0.1 µM ([1]; figure in parentheses in >100( )): 49%; pIC50 ([1]; Pharmacological Test Example 1): < 7.00; pIC50 ([2]; h-SCF 50 ng/ml): 6.57
COc1ccc(COC(=O)Nc2ccc(Oc3ncnc4cc(OC)c(OC)cc34)cc2)cc1OC [Example 65, 3,4-Dimethoxybenzyl N-{4-[(6,7-dimethoxy-4-quinazolinyl)oxy]phenyl}carbamate] |  |  | pIC50 ([1]; Pharmacological Test Example 1): > 8.00; pIC50 ([2]; h-SCF 50 ng/ml): 6.99
CCCCCC(C)OC(=O)Nc1cc(C)c(Oc2ccnc3cc(OC)c(OC)cc23)cc1C (stereo not drawn) [Example 412] | 7.09 | 6.91 | 
CCCCC(CCCC)OC(=O)Nc1ccc(Oc2ccnc3cc(OC)c(OC)cc23)c(C)c1C [Example 370, 1-Butylpentyl N-{4-[(6,7-dimethoxy-4-quinolyl)oxy]-2,3-dimethylphenyl}carbamate] |  |  | pIC50 ([1]; Pharmacological Test Example 1): 7.13; pIC50 ([2]; h-SCF 50 ng/ml): 6.23
CCCCN(CCCC)CCNC(=O)Nc1cc(C)c(Oc2ccnc3cc(OC)c(OC)cc23)cc1C [Example 683, N-[2-(Dibutylamino)ethyl]-N′-{4-[(6,7-dimethoxy-4-quinolyl)oxy]-2,5-dimethylphenyl}urea] | < 7.00 |  | inhibition at 0.1 µM [1, 3]: 40%; inhibition at 1 µM [2, 4]: 26%
COc1cc2nccc(Oc3ccc(NC(=S)NC4CCN(Cc5ccccc5)CC4)c(C)c3C)c2cc1OC [Example 513, N-{4-[(6,7-Dimethoxy-4-quinolyl)oxy]-2,3-dimethylphenyl}-N′-[4-(N-benzyl)piperidinyl]thiourea] | < 7.00 | 6.14 | PDGF (E) inhibition (%) at 100 nM [1, 3]: 28%
COc1cc2nccc(Oc3ccc(NC(=O)OC(C)c4cccc(C(F)(F)F)c4)cc3)c2cc1OC (stereo not drawn) [Example 87, 1-[3-(Trifluoromethyl)phenyl]ethyl N-{4-[(6,7-dimethoxy-4-quinolyl)oxy]phenyl}carbamate] |  |  | pIC50 ([1]; Pharmacological Test Example 1): > 8.00; pIC50 ([2]; h-SCF 50 ng/ml): 6.22
COc1cc2ncnc(Oc3ccc(NC(=S)NCCCn4ccnc4)cc3)c2cc1OC [Example 526, N-{4-[(6,7-Dimethoxy-4-quinazolinyl)oxy]phenyl}-N′-[3-(1-imidazoyl)propyl]thiourea] | < 7.00 | 6.14 | inhibition at 0.1 µM [1, 3]: 46%
COc1cc2nccc(Oc3ccc(NC(=S)NC(=O)CCSC)c(C)c3)c2cc1OC [Example 696, N-{4-[(6,7-Dimethoxy-4-quinolyl)oxy]-2-methylphenyl}-N′-[3-(methylthio)propanoyl]-thiourea] | < 7.00 |  | inhibition at 0.1 µM [1, 3]: 37%; inhibition at 1 µM [2, 4]: 35%
COc1cc2nccc(Oc3ccc(NC(=O)OCc4ccc(F)cc4)c(C)c3C)c2cc1OC [Example 9, 4-Fluorobenzyl N-{4-[(6,7-dimethoxy-4-quinolyl)oxy]-2,3-dimethylphenyl}carbamate] |  |  | pIC50 ([1]; Pharmacological Test Example 1): > 8.00; pIC50 ([2]; h-SCF 50 ng/ml): 7.35

Now from value to compound, other results behind:

pIC50 [1] | pIC50 ([2]; 50 ng/ml h-SCF) | Compound | also measured
7.89 |  | COc1cc2ncnc(Oc3ccc(NC(=S)NC(=O)CCc4cccc(C)c4)cc3)c2cc1OC [Example 1185, N-{4-[(6,7-Dimethoxy-4-quinazolinyl)oxy]phenyl}-N′-[3-(3-methylphenyl)propanoyl]thiourea] | inhibition at 1 µM ([2]; figure in parentheses in −( )): 26%
7.68 |  | COc1cc2nccc(Oc3ccc(NC(=S)NC(=O)c4cc(Cl)cc(Cl)c4)cc3)c2cc1OC [Example 1009, N-(3,5-Dichlorobenzoyl)-N′-{4-[(6,7-dimethoxy-4-quinolyl)oxy]phenyl}thiourea] | pIC50 ([2]; h-SCF stimulation): 6.61
7.10 |  | COc1cc2ncnc(Oc3ccc(NC(=S)NCCCN4CCCC4=O)cc3)c2cc1OC [Example 525, N-{4-[(6,7-Dimethoxy-4-quinazolinyl)oxy]phenyl}-N′-[3-(2-oxotetrahydro-1H-1-pyrrolyl)-propyl]thiourea] | inhibition at 1 µM [2, 4]: 41%
7.64 |  | COc1cc2nccc(Oc3ccc(NC(=S)NC(=O)N(C(C)C)C(C)C)cc3Cl)c2cc1OC [Example 1050, N-{3-Chloro-4-[(6,7-dimethoxy-4-quinolyl)oxy]phenyl}-{[(diisopropylamino)carbonyl]amino}methanethioamide] | pIC50 ([2]; h-SCF stimulation): 6.24
7.85 |  | COc1cc2nccc(Oc3ccc(NC(=S)NC(=O)c4ccc(CCl)cc4)cc3)c2cc1OC [Example 1136, N-[4-(Chloromethyl)benzoyl]-N′-{4-[(6,7-dimethoxy-4-quinolyl)oxy]phenyl}thiourea] | pIC50 ([2]; h-SCF stimulation): 6.19
7.72 |  | COc1cc2ncnc(Oc3ccc(NC(=S)NC(=O)Cc4cccc5ccccc45)cc3)c2cc1OC [Example 709, N-{4-[(6,7-Dimethoxy-4-quinazolinyl)oxy]phenyl}-N′-[2-(1-naphthyl)acetyl]thiourea] | inhibition at 1 µM [2, 4]: 19%
7.60 | 6.08 | COc1cc(Oc2ncnc3cc(OC)c(OC)cc23)ccc1NC(=O)NCCN(C(C)C)C(C)C [Example 660, N-[2-(Diisopropylamino)ethyl]-N′-{4-[(6,7-dimethoxy-4-quinazolinyl)oxy]-2-methoxyphenyl}urea] | 
7.48 | 6.46 | CCN(CCNC(=S)Nc1ccc(Oc2ncnc3cc(OC)c(OC)cc23)cc1)c1ccccc1C [Example 528] | 
8.22 | 6.52 | COc1cc2nccc(Oc3ccc(OCCCOc4ccccc4C)cc3)c2cc1OC [Example 792, 6,7-Dimethoxy-4-{4-[3-(2-methylphenoxy)propoxy]phenoxy}quinoline] | 
7.57 |  | CCCc1ccc(C(=O)NC(=S)Nc2ccc(Oc3ccnc4cc(OC)c(OC)cc34)cc2F)cc1 [Example 994, N-{4-[(6,7-Dimethoxy-4-quinolyl)oxy]-2-fluorophenyl}-N′-(4-propylbenzoyl)thiourea] | inhibition at 1 µM ([2]; figure in parentheses in −( )): 47%
> 8.00 | 7.01 | CCN(CCNC(=O)Nc1ccc(Oc2ncnc3cc(OC)c(OC)cc23)cc1)c1cccc(C)c1 [Example 664, N-{4-[(6,7-Dimethoxy-4-quinazolinyl)oxy]phenyl}-N′-[2-(ethyl-3-methylanilino)ethyl]urea] | 
7.42 |  | COc1cc2nccc(Oc3ccc(NC(=S)NC(=O)N(C)c4ccccc4)cc3)c2cc1OC [Example 1046, N-{4-[(6,7-Dimethoxy-4-quinolyl)oxy]phenyl}-{[(methylanilino)carbonyl]amino}methanethioamide] | pIC50 ([2]; h-SCF stimulation): 6.69
7.44 | 6.82 | COc1cc2ncnc(Oc3ccc(NC(=O)N[C@H]4CCN(Cc5ccccc5)C4)c(Cl)c3)c2cc1OC [Example 576, N-[(3S)-1-Benzyltetrahydro-1H-3-pyrrolyl]-N′-{2-chloro-4-[(6,7-dimethoxy-4-quinazolinyl)oxy]phenyl}urea] | 
7.89 | 7.15 | COc1cccc(CNC(=O)COc2ccc(Oc3ncnc4cc(OC)c(OC)cc34)cc2)c1 [Example 801, N1-(3-Methoxybenzyl)-2-{4-[(6,7-dimethoxy-4-quinazolinyl)oxy]phenoxy}acetamide] | 

— US7135466B2 (Kirin Beer Kabushiki Kaisha, priority 1999, dated 2006)
